From patent publication US10779531B2, “Insect repellent” (Kao Corporation, priority 2015, dated 2020)

Assays:
[1] = tested on: carbon dioxide-sensitive sensory hair of an Asian tiger mosquito; assay: Evaluation of carbon dioxide response-inhibiting effect (nerve firing recording of sensory hair); format: in vivo; settings: fragrance 1% in paraffin oil, 15 μL on filter paper, olfactory stimulation 1 second, nerve firings relative to paraffin oil, N=1; for pest or weed control at 1 %: Aedes albopictus, 1 s, read-out: Inhibition of carbon dioxide response (%)
Description: (§1) Asian tiger mosquitoes grown from eggs purchased from Sumika Technoservice Corporation were used. A transparent plastic pan was filled with water to a depth of approximately 1 cm, and a filter paper on which the eggs had been deposited was put therein. The larvae were fed with tropical fish feed (TetraMin) every day. After approximately 1 week, the pupae were collected with a dropper, and transferred into a 20 mL plastic cup, and the cup was placed in a netted cage. The adults were fed with 10 mass % sucrose contained in a 25 mL plastic tube. The males and females were kept together in one cage and allowed to mate for 5 days after eclosion. After 5 days of captivity, the adults were collected with an insect aspirator and anesthetized on ice for 5 minutes, and visually sorted into males and females to collect only the females. The wings and legs were removed from each female mosquito under anesthesia, and the female mosquito was pushed onto a double-sided adhesive tape pasted on a microscope slide with the back on the tape and thus fixed thereto, and the antennae and maxillary palpi were positioned, so as to achieve the accessibility of electrodes.
A 1 mol/L aqueous solution of potassium hydroxide was injected into a 50 mL syringe, and the syringe was horizontally fixed to a magnet stand with a clamp. A tungsten wire fixed to an electrode holder was horizontally inserted into the syringe, and polished by electrolysis under microscopic observation. A current was supplied from an AC power source to the syringe through the electrode holder via crocodile clips.
The Asian tiger mosquito prepared on a microscope slide was set under a microscope, and positioned so that the antennae were at the center of the view through a ×10 objective lens. A reference electrode was inserted in the eye of the insect. A pipette for providing an olfactory stimulus was placed near the maxillary palpi, and the objective lens was replaced with a ×100 objective lens. The recording electrode was brought close to the sensory hair, and carefully inserted into the sensory hair with a micromanipulator. The peg-like shape of the carbon dioxide-sensitive sensory hair of an Asian tiger mosquito can be confirmed under microscopic observation. After insertion of the electrode into the sensory hair, the spontaneous nerve firing pattern was investigated. Carbon dioxide the concentration of which had been adjusted to 0.1% was led to an olfactory stimulation apparatus via a silicone tube to stimulate the maxillary palpi for 1 second, and the carbon dioxide response was investigated.
The concentration of each of the fragrances listed in Table 4 was adjusted to 1% with paraffin oil, and the resultant was used as a sample. On a filter paper (3 mm×50 mm) 15 μL of the sample was dropped, and the filter paper was inserted in a Pasteur pipette. The Pasteur pipette was connected to a stimulation apparatus via a plastic tube, and olfactory stimulation was performed for 1 second while the response to carbon dioxide in the air was monitored, and thus the carbon dioxide response-inhibiting effect was evaluated. The number of nerve firings in 1 second after stimulation with paraffin oil as a solvent and the number of nerve firings in 1 second after stimulation with each sample were counted, and the ratio was used for evaluation of the response-inhibiting effect (N=1). Inhibitory rate (%)=100×([number of firings after stimulation with paraffin oil−number of firings after stimulation with sample]/[[number of firings after stimulation with paraffin oil]) (Equation 2)

[2] = tested on: female Asian tiger mosquitoes; assay: Evaluation of inhibitory effect on seeking behavior for heat source (thermoreception-inhibiting effect); format: in vivo, Asian tiger mosquito; settings: fragrance 0.1% in ethanol, 50 μL on sheet on plate heater, landings counted after 30 seconds of contact, relative to ethanol only; for pest or weed control at 0.1 %: Aedes albopictus, 0.5 min, read-out: Inhibitory rate for seeking for heat source (%)
Description: (1) Preparation of Asian Tiger Mosquitoes
as §1, with “10% by” for “10”, “mass” for “mass %”, “females.” for “females. The wings and legs were removed from each female mosquito under anesthesia, and the female mosquito was pushed onto a double-sided adhesive tape pasted on a microscope slide with the back on the tape and thus fixed thereto, and the antennae and maxillary palpi were positioned, so as to achieve the accessibility of electrodes.”
(2) Evaluation of Inhibitory Effect on Seeking Behavior for Heat Source
Approximately 150 to 200 female Asian tiger mosquitoes were transferred in a plastic cage (30×30×30 cm). To monitor the behavior of the female mosquitoes from the top of the plastic cage, the top surface of the cage was replaced with an acrylic plate. A plate heater (multi-panel heater 16 W for small animals, manufactured by Vivaria) as a heat source was provided at a corner of the cage from the outside of the mesh with an area of 5×3 cm exposed. To take a photograph of the heat source from the top surface in experiment, a video camera (manufactured by Sony Corporation) was disposed above the top surface. A sheet for application of a sample was fixed to the heat source with a double-sided adhesive tape.
The concentration of a fragrance listed in Table 1 was adjusted to 0.1% with ethanol to prepare a sample, and 50 μL of the sample or ethanol as a solvent was administered in experiment. To activate the female mosquitoes, 1% of carbon dioxide was administered from the top for 1 second, and then the heat source was brought into contact with the cage. After 30 seconds of contact, a photograph of the heat source was taken to count the number of mosquitoes attracted. The sheet used for the heat source was discarded and replaced with another sheet every time the assay was completed. In view of the influence of a sample on the mosquitoes, the number of evaluations performed for one cage was limited to (7 samples+1 control) at a maximum. The inhibitory rate relative to the number of landings with application of ethanol solvent only was calculated for one set of assays (7 samples+1 control) to determine the inhibitory effect by using the following equation. Inhibitory rate (%)=100×(1−[number of landings with application of sample]/[number of landings with application of ethanol]) (Equation 1)

[3] = tested on: Adult Asian tiger mosquitoes; assay: Evaluation of inhibition of seeking behavior for human arm (landings on gloved hand); format: in vivo, Asian tiger mosquito; settings: for Total landing rate (%) / Number of landings total: sample 0.4% in ethanol on cotton-gloved hand; for Total landing rate (%): relative to number of landings with control sample (ethanol) as 100%; for Number of landings total: sum total of 1, 2 and 3 minutes; for Number of landings 1 min / Number of landings 2 min / Number of landings 3 min: sample 0.4% in ethanol, sprayed 14 times (0.6 g) on cotton-gloved hand; for Number of landings 1 min: after 1 minute; for Number of landings 2 min: after 2 minutes; for Number of landings 3 min: after 3 minutes
Description: Adult Asian tiger mosquitoes consisting of 220 females and 80 males each at 5 to 10 day old were purchased from Sumika Technoservice Corporation, and released in a 30 cm×30 cm×30 cm plastic cage (bug dorm).
The concentration of each of 2,4-dimethylcyclohex-3-ene-1-methanol (“floralol”, IFF Inc.) and octahydro-7-methyl-1,4-methanonaphthalen-6(2H)-one (“PLICATONE”, Firmenich SA) as evaluation samples was adjusted to 0.4% with ethanol. A sample containing only ethanol was used as a control.
Each of the evaluation samples and control sample was sprayed 14 times in total (0.6 g) to both sides of a hand wearing a 100% cotton glove doubly.
After application of the sample, the gloved hand was left to stand for 1 minute to volatilize ethanol, and the gloved hand with the sample applied thereto was then put in the plastic cage, and the number of mosquitoes which landed on the glove was counted every 1 minute.
The numbers of landings after 1 minute, 2 minutes, and 3 minutes, and the sum total of them were counted, and the landing rate relative to the number of landings with application of the control sample as 100% was calculated. This experiment was repeated three times.

Cc1csc(C(C)C)n1 [2-Isopropyl-4-methylthiazol, 2-isopropyl-4-methylthiazol]
pest or weed control at 1 % [1]: 71%

CCC(=O)OCc1ccccc1 [Benzyl propionate, benzyl propionate]
pest or weed control at 1 % [1]: 97%

COC1CC2CC1C1CC(C=O)CC21 (centres unmarked) [octahydro-5-methoxy-4,7-methano-1H-indene-2-carboxaldehyde]
pest or weed control at 0.1 % [2]: 89.2%

CCCCC1CCC(=O)O1 (centres unmarked) [γ-Octalactone, γ-octalactone]
Inhibitory rate for seeking for heat source (%) [2]: 87.4%

C=CC(O)CCCCC (centres unmarked) [1-Octen-3-ol, 1-octen-3-ol]
pest or weed control at 1 % [1]: 55%

CC1=C(C=O)C(C)(C)CC=C1 [2,6,6-trimethylcyclohexa-1,3-diene-1-carbaldehyde]
pest or weed control at 0.1 % [2]: 91.7%

C=CCCCCCCCCO [9-Decen-1-ol, 9-decen-1-ol]
pest or weed control at 1 % [1]: 56%

CCOC(=O)C(C)C1CCCCC1 (centres unmarked) [Ethyl 2-cyclohexylpropionate, ethyl 2-cyclohexylpropionate]
pest or weed control at 1 % [1]: 48%

Cc1ncsc1CCO [4-Methyl-5-thiazoleethanol, 4-methyl-5-thiazoleethanol]
pest or weed control at 0.1 % [2]: 74.5%

CCCCCC1=C(C)CCC1=O [3-Methyl-2-pentylcyclopent-2-en-1-one, 3-methyl-2-pentylcyclopent-2-en-1-one]
pest or weed control at 1 % [1]: 68%

CCCCCCCCO [1-Octanol, 1-octanol]
pest or weed control at 1 % [1]: 97%

CC=C1CC2CC1C1CCC(=O)OC21 (centres unmarked) [9-ethylidene-3-oxatricyclo(6.2.1.0^2,7)undecan-4-one]
pest or weed control at 0.1 % [2]: 85.9%

COC(C)(C)CCCC(C)CC=O (centres unmarked) [7-Methoxy-3,7-dimethyloctanal, 7-methoxy-3,7-dimethyloctanal]
pest or weed control at 0.1 % [2]: 72.4%

CC1=CC(C)C(CO)C(C)C1 (centres unmarked) [2,4,6-Trimethyl-3-cyclohexene-1-methanol, 2,4,6-trimethyl-3-cyclohexene-1-methanol]
pest or weed control at 1 % [1]: 61%

CCCCC(CC)C(=O)OCC (centres unmarked) [Ethyl 2-ethylhexanoate, ethyl 2-ethylhexanoate]
pest or weed control at 1 % [1]: 51%

CC1CC2C3CCC(C3)C2CC1=O (centres unmarked) [octahydro-7-methyl-1,4-methanonaphthalen-6(2H)-one]
Total landing rate (%) [3]: 53.3%
Number of landings total [3]: 12
Number of landings 1 min [3]: 2
Number of landings 2 min [3]: 4
Number of landings 3 min [3]: 6
pest or weed control at 0.1 % [2]: 81.3%

CCCc1ccc(O)c(OC)c1 [2-Methoxy-4-propylphenol, 2-methoxy-4-propylphenol]
pest or weed control at 1 % [1]: 95%

CC1C(=O)c2ccccc2C1(C)C (centres unmarked) [2,3,3-Trimethyl-2H-inden-1-one, 2,3,3-trimethyl-2H-inden-1-one]
pest or weed control at 0.1 % [2]: 76.2%

COC(OC)C(C)c1ccccc1 (centres unmarked) [2-Phenylpropionaldehyde dimethyl acetal, 2-phenylpropionaldehyde dimethyl acetal]
pest or weed control at 0.1 % [2]: 66.8%

CC1=CC(C)C(CO)CC1 (centres unmarked) [2,4-Dimethylcyclohex-3-ene-1-methanol, 2,4-dimethylcyclohex-3-ene-1-methanol]
Total landing rate (%) [3]: 71.1%
Number of landings total [3]: 16
Number of landings 1 min [3]: 3
Number of landings 2 min [3]: 6
Number of landings 3 min [3]: 7
pest or weed control at 1 % [1]: 67%

CCOC(=O)Cc1ccccc1 [Ethyl phenylacetate, ethyl phenylacetate]
pest or weed control at 1 % [1]: 79%

CCCCCCCCCCO [1-Decanol, 1-decanol]
pest or weed control at 1 % [1]: 54%

CC(=O)OC1CCCCC1C(C)(C)C (centres unmarked) [o-tert-Butylcyclohexyl acetate, o-tert-butylcyclohexyl acetate]
pest or weed control at 1 % [1]: 87%

CCCC1CC(=O)C=C(C)C1 (centres unmarked) [3-Methyl-5-propyl-2-cyclohexen-1-one, 3-methyl-5-propyl-2-cyclohexen-1-one]
pest or weed control at 0.1 % [2]: 97.2%

O=C1CCC2CCCCC2O1 (centres unmarked) [Octahydro-2H-1-benzopyran-2-one, octahydro-2H-1-benzopyran-2-one]
pest or weed control at 0.1 % [2]: 93.3%

O=CCOc1ccccc1 [Phenoxyacetaldehyde, phenoxyacetaldehyde]
pest or weed control at 0.1 % [2]: 89%

CC1=CC(C)C(C=O)C(C)C1 (centres unmarked) [Isocyclocitral, isocyclocitral]
Inhibition of carbon dioxide response (%) [1]: 61%

CC/C=C\CCOC(C)=O [cis-3-Hexenyl acetate, cis-3-hexenyl acetate]
pest or weed control at 1 % [1]: 50%

CCC(C)(O)CCc1ccccc1 (centres unmarked) [3-Methyl-1-phenyl-3-pentanol, 3-methyl-1-phenyl-3-pentanol]
pest or weed control at 0.1 % [2]: 69.3%

CCC/C=C/COC(C)=O [trans-2-Hexenyl acetate, trans-2-hexenyl acetate]
pest or weed control at 1 % [1]: 48%

Cc1ccc2ncccc2c1 [6-Methylquinoline, 6-methylquinoline]
pest or weed control at 0.1 % [2]: 64.7%
